The values below are quoted from earlier work in publication PMC4939907 (Angewandte Chemie (International ed. in English), 2016).

This data set deals with cancer (e.g., HeLa) and normal (e.g., HS-5) cells. Conditions: cancer (e.g., HeLa) versus normal (e.g., HS-5) cells; ref 4c, 4d, 10b.

Turning to Nap-D-Phe-D-Phe-D-pTyr, the “selectivity for cancer cells” value is recorded as “selectively inhibits cancer cells”.
